Consider four molecules from patent US20120190615A1, “METHODS AND COMPOSITIONS FOR INDUCING WEIGHT LOSS” (Sanford-Burnham Medical Research Institute, priority 2011, published 2012).

For one assay, the system named is C3H10T1/2 cells. Briefly: Oxygen consumption / uncoupled respiration of cultured mesenchymal stem cells. It counts as cell-based, mouse. The text has this: To determine whether the increased respiration was uncoupled from ATP synthesis, oligomycin-insensitive respiration was first assayed as a measure of uncoupled respiration. Oligomycin inhibits F1 ATP synthetase to suppress only oxidative phosphorylation-associated respiration.

For the next assay, the system named is HIB1 cells. Briefly: Differentiation of HIB1 brown preadipocytes (lipid accumulation, mitochondrial biogenesis). It counts as cell-based. The following applies: SB408124 1 uM, OX treatment for 5 days. The procedure: To further investigate the role of OX in BAT differentiation, the effect of OX on the preadipocyte cell line HIB1 was evaluated. […] Expression of genes functioning in lipid metabolism and mitochondrial biogenesis was elevated while the anti-adipogenic factors […], Pref1, and Wnt10 were expressed at very low levels (FIG. 16).
HIB1 cells were stably transfected with lentivirus over-expressing orexin (Len-OX) and compared to vector controls in the absence or presence of exogenous OX (100 nM), Cells were cultured for 7 days in the absence of differentiation medium and stained with Oil Red O. By day 6 of adipogenic differentiation, orexin-expressing cells had undergone normal BAT differentiation as scored by lipid accumulation.
Brown fat morphological defects seen in both adult and newborn OXR1 KO mice were similar to those observed in OX KO mice. […] To examine the cellular and molecular consequences of OXR1 depletion, lentiviral vectors were used to express a short hairpin (sh) shRNA targeting OXR1 (shOXR1; Open Biosystems, Inc., catalog no. RMM4431-98766481) or a scrambled shRNA control (Open Biosystems, Inc., catalog no. RHS4346) in HIB1 mesenchymal cells. […] After 5 days of differentiation, cultures expressing the scrambled shRNA control had undergone brown fat differentiation as scored by Oil Red O staining and shown in FIG. 18. […]

For assay [1], the system named is primary brown preadipocytes. Briefly: Differentiation of primary brown preadipocytes (Oil Red O). Particulars: 3 days BMP7 or 100 nM OX, then adipogenic medium. Format: cell-based, mice. The text has this: To assess differentiation of primary brown adipocytes, iBAT preadipocytes were isolated from 1-day-old mice and then differentiated in the presence of OX. Differentiation was confirmed by Oil Red O staining which visualizes lipid accumulation (FIG. 7). […] Taken together. OX activates a full program of brown fat adipogenesis by suppressing adipogenic inhibitors, including BAT regulators, elevating mitochondrial biogenesis and oxygen consumption, and inducing uncoupled respiration.
To investigate whether lack of OXR1 impaired BAT differentiation potential, primary brown preadipocytes from OXR1 knockout mice were isolated and differentiated. Generation of wild-type primary brown preadipocyte cell lines was derived from newborn wild-type mice as described previously by Klein et al. (Bioessays, 24: 382-388, 2002), which is hereby incorporated by reference in its entirety. Brown preadipocytes isolated from C57BL-6 mice served as positive control. All cell lines were maintained in Dulbecco's modified […] medium (DMEM), high glucose, supplemented with 10% FBS at 37° C. in a 5% CO2 environment. To induce adipogenesis, the cells were treated for 3 days with either BMP7 or 100 nM OX, at which time they were confluent. Cells were then incubated in adipogenic medium containing 0.125 mM indomethaein, […] dexamethazone, and […] 3-isobutyl-1-methyxanthine (IBMX) supplemented by 20 nM insulin as described by Tseng et al., (Nature, 454: 1000-1004, 2008) which is hereby incorporated by reference in its entirety.

As for `N#CC(C#N)=NNc1ccc(OC(F)(F)F)cc1` [FCCP, reference compound], the “oxygen consumption of unstimulated, differentiated cells, increase” value in the assay on C3H10T1/2 cells (in the presence of FCCP) was found to be 6 fold. Turning to `Cc1cc(NC(=O)Nc2ccc(N(C)C)cc2)c2cc(F)cc(F)c2n1` [SB408124, reference compound], the OX-dependent mitochondrial biogenesis entry in the assay on HIB1 cells was “blunted”. Take `CC[C@H]1/C=C/C=C/C[C@@H](C)[C@H](O)[C@@](C)(O)C(=O)[C@@H](C)[C@H](O)[C@@H](C)C(=O)[C@@H](C)[C@H](O)[C@@H](C)/C=C/C(=O)O[C@@H]2[C@H](C)[C@H](CC1)O[C@]1(CC[C@H](C)[C@H](C[C@@H](C)O)O1)[C@H]2C` [oligomycin, reference compound]: in the assay with C3H10T1/2 cells (absence of OX), the “respiration of unstimulated differentiated cells” value is on record as “completely suppressed respiration”.

B1: BMP-7: recombinant human BMP-7 (cat. No. 4579, BioVision), a potent inducer of BAT differentiation (protein, UniProt P18075 293-431, looked up)
Bone morphogenetic protein 7: STGSKQRSQNRSKTPKNQEALRMANVAENSSSDQRQACKKHELYVSFRDLGWQDWIIAPEGYAAYYCEGECAFPLNSYMNATNHAIVQTLVHFINPETVPKPCCAPTQLNAISVLYFDDSSNVILKKYRNMVVRACGCH
Take B1: the “differentiation of wild-type preadipocytes based on lipid accumulation” value in assay [1] is reported as “enhanced differentiation”. Further, in the assay on C3H10T1/2 cells (oligomycin), the “oxygen consumption of treated cells in the presence of oligomycin” value is on record as “efficiently consumed oxygen”.
